According to patent US20210254101A1, “METHODS FOR TREATING SPINAL CORD INJURY” (THE CHILDREN'S MEDICAL CENTER CORPORATION, priority 2018, published 2021):

Columns and labels:
[1] = tested on: propriospinal and brain-derived descending axons; experiment: Axon regrowth tracing: retrograde HiRet-mCherry, anterograde AAV-ChR2, 5-HT immunohistochemistry; format: in vivo, mouse
Protocol: To test these possibilities, it was determined whether CLP290 increased the regrowth of spared propriospinal axons, and/or their connecting axons from the brain. To analyze neuronal projections to the hindlimb locomotor control center in each condition, a retrograde tracing pseudotyped lentiviral vector (HiRet) expressing mCherry (HiRet-mCherry) (Kato et al., 2011; Wang et al., 2017; Liu et al., 2017) was injected into the lumbar enlargement (L2-L4). At 2 weeks after injury, most retrogradely labeled neurons were found in the spinal cord segments between and around the lesions, with few above the lesion and none in the brain ([…]). […] Similarly, the sprouting of serotonergic axons detected by 5-HT immunohistochemistry was also not affected by CLP290 treatment (FIG. 9D-9F). Thus, it is unlikely that CLP290 acts by promoting the regrowth of brain-derived descending axons into the relay zone, or propriospinal axons projecting to the lumbar spinal cord.
For reticulospinal tracing experiments (procedure was described previously (Esposito et al., 2014)), AAV2/8-ChR2-YFP and AAV2/8-ChR2-mCherry were injected into the mouse right and left reticular formation in the brain stem respectively. For CST tracing experiments (procedure was described previously (Liu et al., 2010; Liu et al., 2017)), AAV2/8-ChR2-mCherry was injected to the mouse right sensorimotor cortex (all AAV titers were adjusted to 0.5-5×10^13 copies/ml for injection, produced by The Viral Core, Boston Children's Hospital). For lumbar level retrograde tracing, vectors of HiRet-mCherry (lenti-virus titers were adjusted to 1.6-2×10^12 copies/ml for injection) were constructed based on the HiRet-lenti backbone (Kinoshita et al., 2012). Injection procedure was described previously (Wang et al., 2017), in which HiRet-mCherry is injected into left or right lumbar spinal cord from segments 2-4.
Spinal cord transverse and horizontal sections were imaged with a confocal laser-scanning microscope (Zeiss 700 or Zeiss 710). To quantify and compare fluorescence intensity of: reticular spinal tract projections (RFP^+ and GFP^+), and corticospinal tract (CST) projections (GFP^+), at different transverse spinal cord segments sections (FIGS. 10A and 10C); as well as 5HT axonal staining (FIG. 10B). All images, used for analysis under multiple conditions, were taken using the same optical parameters to avoid saturation. Densitometry measurements were taken by using FIJI software, after being sub-thresholded to the background and normalized by area.
aTo quantify and compare the retrograde HiRet-marked cell body of spinal neurons in different treatments, all images were decomposed to individual channels and planes. They were aligned and quantified using custom-developed MATLAB codes. […]

c-Fos = c-Fos immunoreactivity in spinal cord segments between T7 and T10 after 1 hour walking; format: in vivo, mouse
Source text: In mature neurons, GABA and glycine are inhibitory because they open chloride channels, which allow chloride ion influx leading to hyperpolarization. In contrast, during development, the elevated intracellular chloride levels render GABAA- and glycine-mediated currents depolarizing and generally excitatory. During early postnatal life, KCC2 upregulation in postnatal neurons is crucial for reducing intracellular chloride concentrations, transforming excitation into inhibition (Ben-Ari et al., 2012; Kaila et al., 2014). Thus, injury-induced KCC2 down-regulation (Boulenguez et al., 2010; Cote et al., 2014) would be expected to restore an immature state in which GABA and glycine receptors can depolarize neurons. In this scenario, KCC2 activation in spinal inhibitory neurons would transform local circuits in the relay zone towards a more physiological state, which is more receptive to descending inputs. To examine this, c-Fos immunoreactivity was used as a proxy of neuronal activity in the spinal cord segments between T7 and T10 at 8 weeks after injury, and after walking on a treadmill for 1 hour. In each group, the majority of c-Fos-positive cells in these spinal segments were also positively stained with NeuN, a neuronal marker (FIG. 11A, 11B). In injured mice without treatment, the c-Fos-positive neurons were concentrated in the dorsal horn of the spinal cord (FIG. 5A-5C), perhaps reflecting hypersensitivity to peripheral sensory inputs in these injured mice. […] This KCC2-transformed distribution pattern is similar to what was detected in intact mice, in response to walking (FIG. 5A-5C).
Immunohistochemistry and Imaging. The paraformaldehyde (PFA) fixed tissues were cryo-protected with 30% sucrose and processed using cryostat (section thickness 40 μm for spinal cord). Sections were treated with a blocking solution containing 10% normal donkey serum with 0.5% Triton-100 for 2 hours at room temperature before staining. The primary antibodies (4 □, overnight) used were: rabbit anti-GFAP [DAKO (Z0334), 1:600]; rabbit anti-5-HT [Immunostar (20080), 1:5,000]; chicken anti-GFP [Abcam (ab13970), 1:400]; rabbit anti-RFP [Abcam (ab34771), 1:400]; rabbit anti-PKCγ [Santa Cruz (sc211), 1:100]; rat anti-HA [Sigma (11867423001), 1:200]; rabbit anti-c-Fos [Cell signaling (2250s), 1:100]; and mouse anti-NeuN [Millipore (MAB377), 1:400]. Secondary antibodies (room temperature, 2 h) included: Alexa Fluor 488-conjugated donkey anti chicken and rabbit; and Alexa Fluor 594-conjugated donkey anti rabbit (all from Invitrogen). c-Fos immunoreactivity of spinal neurons was determined as previously described (Courtine et al., 2009), after 1-hour of continuous quadrupedal free walking (intact), stepping (CLP290 or AAV-KCC2 treated mice) or dragging (vehicle or AAV-GFP treated mice). The mice were returned to their cages, and were then anesthetized and sacrificed by intracardial perfusion of 4% PFA (wt/vol) in phosphate buffered saline (PBS) about 2 hours later.

[2] = T8/9, 8 weeks after injury, chronic treatment, FIG. 5A-5C

With O=C1N=C(N2CCCCN2)S/C1=C\c1ccc(F)cc1OC(=O)N1CCCC1 [CLP290, [5-Fluoro-2-[(Z)-(2-hexahydropyridazin-1-yl-4-oxo-thiazol-5-ylidene)methyl]phenyl] pyrrolidine-1-carboxylate] the “sprouting of serotonergic axons” value ([1]; 5-HT immunohistochemistry, FIG. 9D-9F) was “not affected”, the “number of retrogradely traced neurons in the spinal cord” value ([1]; HiRet-mCherry injected into L2-L4, 10 weeks after injury, FIGS. 8C and 8F) was “did not affect these measures” and the “sprouting of descending brainstem reticulospinal axons” value ([1]; anterograde tracing with AAV-ChR2-mCherry and AAV-ChR2-GFP, 2 and 10 weeks after injury, FIG. 9A-9C) was “failed to reveal increased sprouting”. The “sprouting of corticospinal axons” value ([1]; anterograde tracing, 2 and 10 weeks after injury, FIG. 9G-9I) was “failed to reveal increased sprouting”, the “c-Fos pattern after withdrawal of treatment” value (c-Fos; 2 weeks after withdrawal, FIGS. 11C and 11D) was “returned to what seen without treatment” and the “c-Fos-positive neurons in the dorsal horn (laminae I-V)” value (c-Fos; [2]) was “a reduction in the dorsal horn”. The “c-Fos-positive neurons in the intermediate/ventral spinal cord” value (c-Fos; [2]) was “a significant increase in the intermediate/ventral spinal cord”.
